Measurements published in US20100074975A1, “Pharmaceutical composition for the prevention and treatment of liver disease comprising a lonicera caerulea L. Var. Edulis extract” (priority 2005, published 2010).

Assays:
HepG2 cells [1] = conditions: 48 hrs
Experimental: HepG2 cells were seeded in a 96-well plate at a density of 1×10^4 cells per well and incubated in a culture medium supplemented with 10% FBS for 16 hrs. After the 96-well plate was washed with physiological saline, ethyl alcohol, which was diluted in a culture medium in amounts of 0, 0.5, 1.0, 1.5 and 2.0% (v/v), was added to each well in which HepG2 cells were cultured. After incubation for 48 hrs, the cell number in each well was measured using a SRB method.
The culture medium was removed, and the 96-well plate was washed with physiological saline. The cells in each well were then fixed with 70% acetone for 20 min. The fixed cells were dried, stained with an SRB solution for 30 min, and washed with a 1% acetic acid solution five times to eliminate unbound SRB. After the cells were dried again, 10 mM Tris was added to the cells to dissolve cellular proteins and unbound SRB, and absorbance was measured at 562 nm using a spectrophotometer. The results were expressed as a percentage by comparing the absorbance of each well treated with ethyl alcohol with that of a control well not treated with ethyl alcohol (FIG. 2).

HepG2 cells [2] = assay: Restoration of growth of cells whose growth is suppressed by ethyl alcohol (SRB method); type: cell-based, human; conditions: HepG2, 1.5% ethyl alcohol for 24 hrs
Experimental: After the 96-well plate was washed with physiological saline, ethyl alcohol, which was diluted in culture medium in 1.5% (v/v), was added to each well in which HepG2 cells were cultured. Cell damage was induced using ethyl alcohol for 24 hrs. Thereafter, the culture medium containing ethyl alcohol was removed, and the extract from L. caerulea fruits, which was diluted in culture medium in amounts of 0, 0.125, 0.25, 0.5 and 1 mg/ml, was added to each well. […] Cells in each well were then fixed with 70% acetone for 20 min. […] The absorbance of a well treated with ethyl alcohol alone and the absorbance of each well treated with alcohol plus the extract from L. caerulea fruits were compared with that of a control well which was not treated with ethyl alcohol or with the extract from L. caerulea fruits (FIG. 3).
The reduced absorbance increased in a manner that was dependent on the concentrations of the extract from L. caerulea fruits when the extract was administered at up to 0.5 mg/ml to the well treated with ethyl alcohol.
Thus, the degree of restoration of ethyl alcohol-induced cell growth damage by administration of the extract from L. caerulea fruits was calculated according to Equation 1, and the results are given in Table 1, below. […]

CCO [ethyl alcohol]
effect on cell number (HepG2 cells [1]; HepG2, ethyl alcohol at concentrations of 1.5% or higher): reduced cell number
effect on cell growth (HepG2 cells [1]; HepG2, ethyl alcohol at concentrations of up to 1% (v/v)): stimulate cell growth
absorbance reduced in comparison with the well not treated with ethyl alcohol (HepG2 cells [2]): 22%
